Data from patent US6737383B1, “Herbicidal oxadiazolidines” (priority 1999, dated 2004).

How the values were obtained:
[1] = system: velvetleaf; assay: Test B pre/postemergence velvetleaf; format: in vivo, Abutilon theophrasti
Outline: (§1)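 Response is a visual 0-to-10 score relative to untreated plants, where 0 means no effect and 10 means complete control, taken twelve to sixteen days after application. Treatments went onto soil at planting and onto foliage of 1- to 4-leaf plants, using a surfactant-containing non-phytotoxic solvent.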

[2] = system: giant foxtail; assay: Test B pre/postemergence giant foxtail; format: in vivo, Setaria faberii
Outline: as §1

[3] = system: sugar beet; assay: Test B pre/postemergence sugar beet; format: in vivo, Beta vulgaris
Outline: as §1

[4] = system: duck salad; assay: Test B flood test duck salad; format: in vivo, Heteranthera limosa; conditions: Pre-emergence
Outline: (§2)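 Plants were grown to the 2-leaf stage before treatment with test chemical, then held in a greenhouse for twelve to sixteen days. Injury was visually rated against untreated controls on a 0–10 scale, where 0 is no effect and 10 is complete control.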

[5] = system: morningglory; assay: Test B pre/postemergence morningglory; format: in vivo, Ipomoea hederacea
Outline: as §1

[6] = system: rape; assay: Test B pre/postemergence rape; format: in vivo, Brassica napus
Outline: as §1

[7] = system: purple nutsedge; assay: Test B pre/postemergence purple nutsedge; format: in vivo, Cyperus rotundus
Outline: as §1

[8] = system: bamyardgrass; assay: Test B flood test barnyardgrass; format: in vivo, Echinochloa crus-galli; conditions: Pre-emergence
Outline: as §2

[9] = system: blackgrass; assay: Test B pre/postemergence blackgrass; format: in vivo, Alopecurus myosuroides
Outline: as §1

[10] = system: wild oat; assay: Test B pre/postemergence wild oat; format: in vivo, Avena fatua
Outline: as §1

[11] = system: smallflower flatsedge; assay: Test B flood test smallflower flatsedge; format: in vivo, Cyperus difformis; conditions: Pre-emergence
Outline: as §2

[12] = system: wheat; assay: Test B pre/postemergence wheat; format: in vivo, Triticum aestivum
Outline: as §1

[13] = system: rice; assay: Test B flood test rice; format: in vivo, Oryza sativa; conditions: Pre-emergence
Outline: as §2

[14] = system: cocklebur; assay: Test B pre/postemergence cocklebur; format: in vivo, Xanthium strumarium
Outline: as §1

[15] = system: pigweed; assay: Test B pre/postemergence pigweed; format: in vivo, Amaranthus retroflexus
Outline: as §1

[16] = system: soybean; assay: Test B pre/postemergence soybean; format: in vivo, Glycine max
Outline: as §1

[17] = Postemergence, Rate 1000 g/ha, scale 0 to 10 (0 no effect, 10 complete control)
[18] = Preemergence, Rate 250 g/ha, scale of 0 to 10 where 0 is no effect and 10 is complete control
[19] = Preemergence, Rate 500 g/ha, scale of 0 to 10 where 0 is no effect and 10 is complete control
[20] = Rate 125 g/ha, Preemergence, scale of 0 to 10 where 0 is no effect and 10 is complete control
[21] = Rate 500 g/ha, Postemergence, scale 0 to 10, 0 no effect, 10 complete control
[22] = Rate 1000 g/ha, Preemergence, scale 0 to 10 (0 no effect, 10 complete control)
[23] = Rate 1000 g/ha, scale 0 to 10 (0 no effect, 10 complete control)
[24] = Rate 125 g/ha, flood test species, scale 0 to 10 where 0 is no effect and 10 is complete control
[25] = Rate 250 g/ha, flood-test species, scale 0 to 10, 0 is no effect, 10 is complete control
[26] = Rate 500 g/ha, flood test species, scale 0 to 10 (0 no effect, 10 complete control)
[27] = Rate 125 g/ha, Postemergence, scale 0 to 10

CCOC(=O)C(C)N(C(=O)n1oc(=O)n(-c2ccccc2C)c1=O)c1ccc(F)cc1 (stereo not shown) [Compound 247]
Velvetleaf plant response rating [1, 17]: 0
Velvetleaf plant response rating [1, 18]: 0
Plant response rating, Velvetleaf [1, 19]: 0
Velvetleaf plant response rating [1, 20]: 0
Velvetleaf plant response rating [1, 21]: 0
Plant response rating, Velvetleaf [1, 22]: 0
Giant foxtail plant response rating [2, 17]: 0
Giant foxtail plant response rating [2, 18]: 2
Plant response rating, Giant foxtail [2, 19]: 3
Giant foxtail plant response rating [2, 20]: 0
Plant response rating (0 to 10; 0 is no effect, 10 is complete control), Giant foxtail ([2]; Rate 250 g/ha, Postemergence): 0
Giant foxtail plant response rating [2, 21]: 0
Plant response rating, Giant foxtail [2, 22]: 7
Sugarbeets plant response rating [3, 17]: 0
Sugarbeets plant response rating [3, 18]: 0
Plant response rating, Sugarbeets [3, 19]: 0
Sugarbeets plant response rating [3, 20]: 0
Sugarbeets plant response rating [3, 21]: 0
Plant response rating, Sugarbeets [3, 22]: 0
Ducksalad plant response rating [4, 23]: 0
Ducksalad plant response rating [4, 24]: 0
Ducksalad plant response rating [4, 25]: 0
Ducksalad plant response rating [4, 26]: 0
Morningglory plant response rating [5, 17]: 4
Morningglory plant response rating [5, 18]: 0
Plant response rating, Morningglory [5, 19]: 0
Morningglory plant response rating [5, 20]: 0
Plant response rating (0 to 10; 0 is no effect, 10 is complete control), Morningglory ([5]; Rate 250 g/ha, Postemergence): 2
Morningglory plant response rating [5, 21]: 2
Plant response rating, Morningglory [5, 22]: 0
Rape plant response rating [6, 17]: 0
Rape plant response rating [6, 18]: 0
Plant response rating, Rape [6, 19]: 0
Rape plant response rating [6, 20]: 0
Plant response rating (0 to 10; 0 is no effect, 10 is complete control), Rape ([6]; Rate 250 g/ha, Postemergence): 0
Rape plant response rating [6, 21]: 0
Plant response rating, Rape [6, 22]: 0
Nutsedge plant response rating [7, 17]: 0
Nutsedge plant response rating [7, 18]: 0
Plant response rating (0 to 10; 0 is no effect, 10 is complete control), Nutsedge ([7]; Rate 250 g/ha, Postemergence): 0
Nutsedge plant response rating [7, 21]: 0
Barnyardgrass plant response rating [8, 23]: 0
Barnyardgrass plant response rating [8, 24]: 0
Barnyardgrass plant response rating [8, 25]: 0
Barnyardgrass plant response rating [8, 26]: 0
Blackgrass plant response rating [9, 17]: 0
Blackgrass plant response rating [9, 18]: 0
Plant response rating, Blackgrass [9, 19]: 0
Blackgrass plant response rating [9, 27]: 0
Blackgrass plant response rating [9, 20]: 0
Plant response rating (0 to 10; 0 is no effect, 10 is complete control), Blackgrass ([9]; Rate 250 g/ha, Postemergence): 0
Blackgrass plant response rating [9, 21]: 0
Plant response rating, Blackgrass [9, 22]: 0
Wild oats plant response rating [10, 17]: 0
Wild oats plant response rating [10, 18]: 0
Plant response rating, Wild oats [10, 19]: 0
Wild oats plant response rating [10, 20]: 0
Wild oats plant response rating [10, 21]: 0
Plant response rating, Wild oats [10, 22]: 0
S. Flatsedge plant response rating [11, 23]: 0
S. Flatsedge plant response rating [11, 24]: 0
S. Flatsedge plant response rating [11, 25]: 0
S. Flatsedge plant response rating [11, 26]: 0
Wheat plant response rating [12, 17]: 0
Wheat plant response rating [12, 18]: 0
Plant response rating, Wheat [12, 19]: 0
Wheat plant response rating [12, 20]: 0
Wheat plant response rating [12, 21]: 0
Plant response rating, Wheat [12, 22]: 0
Rice plant response rating [13, 23]: 0
Rice plant response rating [13, 24]: 0
Rice plant response rating [13, 25]: 0
Rice plant response rating [13, 26]: 0
Cocklebur plant response rating [14, 17]: 0
Cocklebur plant response rating [14, 18]: 0
Plant response rating, Cocklebur [14, 19]: 0
Cocklebur plant response rating [14, 27]: 0
Cocklebur plant response rating [14, 20]: 0
Plant response rating (0 to 10; 0 is no effect, 10 is complete control), Cocklebur ([14]; Rate 250 g/ha, Postemergence): 0
Cocklebur plant response rating [14, 21]: 0
Plant response rating, Cocklebur [14, 22]: 0
Redroot pigweed plant response rating [15, 17]: 0
Redroot pigweed plant response rating [15, 18]: 0
Plant response rating, Redroot pigweed [15, 19]: 0
Redroot pigweed plant response rating [15, 20]: 0
Plant response rating (0 to 10; 0 is no effect, 10 is complete control), Redroot pigweed ([15]; Rate 250 g/ha, Postemergence): 0
Redroot pigweed plant response rating [15, 21]: 0
Plant response rating, Redroot pigweed [15, 22]: 0
Soybean plant response rating [16, 17]: 1
Soybean plant response rating [16, 18]: 0
Plant response rating, Soybean [16, 19]: 0
Soybean plant response rating [16, 20]: 0
Soybean plant response rating [16, 21]: 0
Plant response rating, Soybean [16, 22]: 0
